melting point: 102 to 103 °C
SMILES: C[P@@](c1nc2ccccc2nc1[P@](C)C(C)(C)C)C(C)(C)C [Compound (a3), (R,R)-2,3-bis(tert-butylmethylphosphino)quinoxaline]

— US11021500B2, “Process for preparing optically active 2,3-bisphosphino-substituted quinoxalines” (Nippon Chemical Industrial Co., Ltd., priority 2017, dated 2021)
